Results as given in publication PMC5007466, “VCP recruitment to mitochondria causes mitophagy impairment and neurodegeneration in models of Huntington's disease” (Nature Communications, 2016).

Tests used:
R6/2 mice [1] = assay: Spontaneous locomotion, R6/2; type: in vivo, mouse; conditions: R6/2, 13 weeks of age, 3 mg kg^−1 per day s.c. pump from 5 weeks, n=15
Source text: Male R6/2 mice and their wt littermates (4 weeks old) were purchased from Jackson Laboratories (Bar Harbor, ME; B6CBA-TgN (HD exon 1)62; JAX stock number: 006494). These mice (C57BL/6 and CBA genetic background) are transgenic for the 5′ end of the human HD gene carrying 100–150 glutamine (CAG) repeats.
(§1) Male hemizygous R6/2 mice (Tg) and their age-matched wt littermates (5-week-old) were implanted with a 28-day osmotic pump (Alzet, Cupertino CA) containing TAT control peptide or HV-3 peptide, which delivered peptides to the mice at a rate of 3 mg kg^−1 per day. The first pump was implanted subcutaneously in the back of 5-week-old mice between the shoulders and replaced once, after 4 weeks.
Gross locomotor activity was assessed in R6/2 mice and age-matched wt littermates at the ages of 13 weeks and in YAC128 mice and age-matched wt littermates at the ages of 2, 3, 6, 9, and 12 months. In an activity chamber (Omnitech Electronics, Inc), mice were placed in the center of the chamber and allowed to explore while being tracked by an automated beam system (Vertax, Omnitech Electronics Inc). Distance moved, horizontal, vertical, and rearing activities were recorded. Because R6/2 mice were sensitive to changes in environment and handling, we only conducted one-hour locomotor activity analysis for R6/2 mice and wt littermates. […]

R6/2 mice [2] = assay: DARPP-32 protein level in R6/2 striatal extracts; type: in vivo, mouse; conditions: 3 mg kg^−1 per day, n=6
Method: as §1
Protein concentrations were determined by Bradford assay. Protein was resuspended in Laemmli buffer, loaded on SDS–PAGE, and transferred onto nitrocellulose membranes. Membranes were probed with the indicated antibodies, followed by visualization with ECL. Representative blots have been cropped for presentation. Images of full-size blots are presented in Supplementary Fig. 9.

[3] = system: HD patient-iPS cell derived neurons; assay: Mitochondrial mass (Mitotracker green); type: cell-based, human; conditions: 1 μM per day for 5 days
Method: iPS cells from a normal subject and a HD patient (carrying 41 CAG repeats) were differentiated into neurons using the protocol from our previous studies. Briefly, iPS cells were plated onto 6-well plates precoated with 2.5% Matrigel and allowed to reach 90% confluence in feeder-free medium. For the first 10 days, cells were treated with SB431542 (10 μM; Tocris Bioscience) and Noggin (100 ng/ml) in Neural Media (NM) containing Neurobasal and DMEM (1:1), B27 supplement minus vitamin A (50 × , Invitrogen), N2 supplement (100 × , Invitrogen), GlutaMax (Invitrogen, 100 × ), FGF2 ([…]) and EGF ([…]), 100 units per ml penicillin and 100 μg ml^−1 streptomycin). […]
To determine mitochondrial mass in cultures, cells were stained with antibodies against Tom20 or stained with Mitotracker green. The fluorescent density of Tom20 (1:500) or mitotracker green was quantitated using NIH Image J software. […] The images were visualized by microscope and quantitation of the density of red fluorescence was carried out using NIH ImageJ software. For immunocytochemistry study, at least 100 cells per group were counted and quantitated by an observer blind to experimental conditions.

R6/2 mice [4] = assay: DARPP-32 immunostaining of striatum; type: in vivo, mouse; conditions: R6/2, 3 mg kg^−1 per day, n=6
Method: as §1
Mice were deeply anaesthetized and transcardially perfused with 4% paraformaldehyde in PBS. Brains were processed for paraffin embedment. Brain sections (5 μm, coronal) were used for immunohistochemical localization of DARPP-32 (1:500, Epitomics) using the IHC Select HRP/DAB kit (Millipore). Quantitation of DARPP-32 immunostaining was conducted using NIH image J software. The same image exposure times and threshold settings were used for sections from all treatment groups.

[5] = system: wt mice (YAC128 littermates); assay: Motor activity of wt littermates of YAC128; type: in vivo, mouse; conditions: 3 to 12 months of age, 3 mg/kg/day
Method: YAC128 mice (Tg) and their age-matched wt littermates were implanted with an osmotic pump containing TAT control peptide or HV-3 peptide (3 mg/kg/day, each) starting from the age of 3 months. The pump was replaced once every month. By the age of 12 months, the treatments were terminated and the mouse samples were harvested for analysis.
Gross locomotor activity was assessed in R6/2 mice and age-matched wt littermates at the ages of 13 weeks and in YAC128 mice and age-matched wt littermates at the ages of 2, 3, 6, 9, and 12 months. In an activity chamber (Omnitech Electronics, Inc), mice were placed in the center of the chamber and allowed to explore while being tracked by an automated beam system (Vertax, Omnitech Electronics Inc). Distance moved, horizontal, vertical, and rearing activities were recorded. Because R6/2 mice were sensitive to changes in environment and handling, we only conducted one-hour locomotor activity analysis for R6/2 mice and wt littermates. We performed 24 h of locomotor activity analysis for YAC128 mice and their wt littermates.
The motor coordination and balance of YAC128 mice were tested on an accelerating Rotarod (IITC Life Sciences, Serials 8) at the ages of 2, 3, 6, 9 and 12 months. Training and baseline testing for motor function tasks were conducted at 2 months of age. […]

CSCC[C@H](NC(=O)[C@@H](NC(=O)[C@H](CC(C)C)NC(=O)[C@@H](NC(=O)[C@H](Cc1c[nH]cn1)NC(=O)CCCCCNC(=O)[C@H](CCCNC(=N)N)NC(=O)[C@H](CCCNC(=N)N)NC(=O)[C@H](CCCNC(=N)N)NC(=O)[C@H](CCC(N)=O)NC(=O)[C@H](CCCNC(=N)N)NC(=O)[C@H](CCCNC(=N)N)NC(=O)[C@H](CCCCN)NC(=O)[C@H](CCCCN)NC(=O)[C@H](CCCNC(=N)N)NC(=O)CNC(=O)[C@@H](N)Cc1ccc(O)cc1)C(C)C)C(C)C)C(=O)N[C@@H](CS)C(=O)N[C@@H](C)C(=O)N[C@H](C(N)=O)[C@@H](C)O [HV-3]
spontaneous locomotion (total distance, horizontal and vertical activities) (R6/2 mice [1]): markedly corrected these motor deficits
DARPP-32 protein level (R6/2 mice [2]): significantly increased DARPP-32 levels in the two mouse models
mitochondrial mass [3]: corrected these aberrant events
area of DARPP-32-immunostained cells in striatum (R6/2 mice [4]): increased by HV-3 treatment
motor activity of wt mice [5]: did not affect motor activity in wt mice
